The numbers were not newly measured in US20040006111A1, “Transmucosal delivery of proton pump inhibitors” (priority 2002, published 2004), which cites them from elsewhere.

[1] abbreviates: omeprazole buccal adhesive tablets (sodium alginate, HPMC, magnesium oxide, croscarmellose sodium), absorption through the buccal mucosa.

`COc1ccc2[nH]c([S+]([O-])Cc3ncc(C)c(OC)c3C)nc2c1` (stereo not drawn) [omeprazole]: the bioavailability result (omeprazole buccal adhesive tablet formulation of Choi et al.) is listed as “low”. In addition, under setting [1], the peak plasma concentration was 370 ng/mL and the “time to generate peak plasma concentration” value is 45 min.
